Source: patent US6255303A, “Phthalazinone PDE III/IV inhibitors” (Byk Gulden Lomberg Chemische Fabrik GmbH, priority 1998, dated 2001)

Experiments:
[1] = target: PDE4; experiment: Inhibition of PDE isoenzymes: PDE4 (cAMP-specific), cytosol of human polymorphonuclear leukocytes, cAMP as substrate; type: biochemical; conditions: cytosol of human PMNL; 0.5 μM cAMP; motapizone (1 μM) to suppress PDE3; pH 7.4, 37° C., 15 min
[2] = target: T1, PDE3 (Homo sapiens, UniProt Q14432); experiment: Inhibition of PDE isoenzymes: PDE3 (cGMP-inhibited), homogenates of human blood platelets; type: biochemical; conditions: 0.5 μM cAMP or cGMP, pH 7.4, 37° C., 15 min, read-out: -log IC50 PDE3 (converted)
T1 construct: investigated in homogenates of human blood platelets; from tissue; host or cells: human blood platelets (homogenate)
T1 sequence (Q14432 whole entry): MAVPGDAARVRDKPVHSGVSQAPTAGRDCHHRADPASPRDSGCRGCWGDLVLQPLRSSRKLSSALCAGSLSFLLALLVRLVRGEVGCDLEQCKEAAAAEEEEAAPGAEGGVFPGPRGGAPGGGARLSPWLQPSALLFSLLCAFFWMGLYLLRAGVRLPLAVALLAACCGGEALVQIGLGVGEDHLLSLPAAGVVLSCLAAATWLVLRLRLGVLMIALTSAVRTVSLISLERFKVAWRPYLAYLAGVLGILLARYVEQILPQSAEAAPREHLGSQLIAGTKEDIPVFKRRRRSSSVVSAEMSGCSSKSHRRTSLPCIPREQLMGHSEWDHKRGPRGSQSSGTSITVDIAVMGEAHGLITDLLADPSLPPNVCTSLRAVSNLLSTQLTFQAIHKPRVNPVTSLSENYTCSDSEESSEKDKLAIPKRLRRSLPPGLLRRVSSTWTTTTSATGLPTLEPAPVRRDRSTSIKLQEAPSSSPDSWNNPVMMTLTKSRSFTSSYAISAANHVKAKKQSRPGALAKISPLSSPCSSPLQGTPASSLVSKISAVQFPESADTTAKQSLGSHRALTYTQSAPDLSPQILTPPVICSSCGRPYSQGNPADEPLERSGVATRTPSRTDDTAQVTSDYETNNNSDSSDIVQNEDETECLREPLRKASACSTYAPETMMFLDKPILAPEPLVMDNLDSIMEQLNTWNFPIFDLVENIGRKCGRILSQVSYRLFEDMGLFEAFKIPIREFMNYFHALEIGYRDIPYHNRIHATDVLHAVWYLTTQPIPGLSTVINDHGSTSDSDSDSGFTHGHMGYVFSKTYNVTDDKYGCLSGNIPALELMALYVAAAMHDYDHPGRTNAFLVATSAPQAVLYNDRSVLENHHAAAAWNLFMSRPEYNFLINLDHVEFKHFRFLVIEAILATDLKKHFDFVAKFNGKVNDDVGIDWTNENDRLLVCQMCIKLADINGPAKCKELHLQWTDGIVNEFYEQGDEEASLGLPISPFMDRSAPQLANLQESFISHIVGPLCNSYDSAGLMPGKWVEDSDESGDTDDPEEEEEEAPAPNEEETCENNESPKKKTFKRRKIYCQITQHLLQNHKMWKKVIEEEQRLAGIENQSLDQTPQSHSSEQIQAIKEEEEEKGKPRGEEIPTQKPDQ

| -log IC50 PDE4 [1] [mol/l] | IC50 [2] [nM] | SMILES |
| --- | --- | --- |
| 8.60 | 209 | CCOc1ccc(C2=NN(CCCCOc3ccc(C4=NNC(=O)CC4C)cc3)C(=O)[C@H]3CC=CC[C@@H]23)cc1OCC (relative stereo) [Compound 15, (cis)-6-(4-[4-{4-(3,4-diethoxyphenyl)-1-oxo-4a,5,8,8a-tetrahydro-2H-phthalazin-2-yl}-1-butyloxy)phenyl]-4,5-dihydro-5-methyl-2H-pyridazin-3-one] |
| 7.77 | 35.5 | COc1ccc(C2=NN(CCCCOc3ccc(C4=NNC(=O)CC4C)cc3)C(=O)[C@H]3CC=CC[C@@H]23)cc1Cl (relative stereo) [Compound 13, (cis)-6-(4-[4-{4-(3-Chloro-4-methoxyphenyl)-1-oxo-4a,5,8,8a-tetrahydro-2H-phthalazin-2-yl}-1-butyloxy)phenyl]-4,5-dihydro-5-methyl-2H-pyridazin-3-one] |
| 8.40 | 182 | COc1ccc(C2=NN(CC(=O)Nc3ccc(C4=NNC(=O)CC4C)cc3)C(=O)[C@H]3CC=CC[C@@H]23)cc1OC (relative stereo) [Compound 7, (cis)-N-{4-(4-Methyl-6-oxo-1,4,5,6-tetrahydro-pyridazin-3-yl)phenyl}-2-{4-(3,4-dimethoxy-phenyl)-1-oxo-4a,5,8,8a-tetrahydro-1H-phthalazin-2-yl}acetamide] |
| 7.00 | 81.3 | COc1ccc(C2=NN(c3ccc(C4=NNC(=O)CC4C)cc3)C(=O)[C@H]3CC=CC[C@@H]23)cc1Cl (relative stereo) [Compound 12, (cis)-4-(3-chloro-4-methoxyphenyl)-2-{4-(4-methyl-6-oxo-1,4,5,6-tetrahydropyridazin-3-yl)phenyl}-4a,5,8,8a-tetrahydro-2H-phthalazin-1-one] |

More lines, now with the values behind:

| SMILES | -log IC50 PDE4 [1] [mol/l] | IC50 [2] [nM] |
| --- | --- | --- |
| COc1ccc(C2=NN(CC(=O)Nc3ccc(-c4ccc(=O)[nH]n4)cc3)C(=O)[C@@H]3CC=CC[C@H]23)cc1OC (relative stereo) [Compound 5] | 8.10 | 1260 |
| CCOc1ccc(C2=NN(c3ccc(C4=NNC(=O)CC4C)cc3)C(=O)[C@H]3CC=CC[C@@H]23)cc1OCC (relative stereo) [Compound 14, (cis)-4-(3,4-diethoxyphenyl)-2-{4-(4-methyl-6-oxo-1,4,5,6-tetrahydropyridazin-3-yl)phenyl}-4a,5,8,8a-tetrahydro-2H-phthalazin-1-one] | 8.05 | 275 |
| COc1ccc(C2=NN(c3ccc(C(=O)Nc4ccc(-c5ccc(=O)[nH]n5)cc4)cc3)C(=O)[C@H]3CC=CC[C@@H]23)cc1OC (relative stereo) [Compound 9, (cis)-N-{4-(6-Oxo-1,6-dihydro-pyridazin-3-yl)phenyl}-4-(4-{3,4-dimethoxyphenyl}-1-oxo-4a,5,8,8a-tetrahydro-1H-phthalazin-2-yl)benzamide] | 9.08 | 4900 |
| COc1ccc(C2=NN(c3ccc(C(=O)Nc4ccc(C5=NNC(=O)CC5C)cc4)cc3)C(=O)[C@H]3CC=CC[C@@H]23)cc1OC (relative stereo) [Compound 4, (cis)-N-{4-(4-Methyl-6-oxo-1,4,5,6-tetrahydro-pyridazin-3-yl)phenyl}-4-{4-(3,4-dimethoxyphenyl)-1-oxo-4a,5,8,8a-tetrahydro-1H-phthalazin-2-yl}benzamide] | 8.48 | 891 |
| COc1ccc(C2=NN(c3ccc(C4=NNC(=O)CC4C)cc3)C(=O)[C@@H]3CC=CC[C@H]23)cc1OC (stereo partly drawn) [Compound 16, (4aS,8aR)-4-[4-{4-(3,4-dimethoxyphenyl)-1-oxo-4a,5,8,8a-tetrahydro-2H-phthalazin-2-yl}phenyl]-5,6-dihydro-5-methylpyridazin-1-one] | 8.64 | 437 |
| COc1ccc(C2=NN(CCCCC(=O)Nc3ccc(-c4ccc(=O)[nH]n4)cc3)C(=O)[C@@H]3CC=CC[C@H]23)cc1OC (relative stereo) [Compound 6] | 8.17 | 832 |
| COc1ccc(C2=NN(C(C)CCC(=O)Nc3ccc(C4=NNC(=O)CC4C)cc3)C(=O)[C@H]3CC=CC[C@@H]23)cc1OC (relative stereo) [Compound 8, (cis)-N-{4-(4-Methyl-6-oxo-1,4,5,6-tetrahydro-pyridazin-3-yl)phenyl}-4-{4-(3,4-dimethoxyphenyl)-1-oxo-4a,5,8,8a-tetrahydro-1H-phthalazin-2-yl}valeramide] | 8.17 | 100 |
| COc1ccc(C2=NN(c3ccc(C4=NNC(=O)CC4C)cc3)C(=O)[C@H]3CC=CC[C@@H]23)cc1OC (relative stereo) [Compound 2, (cis)-4-(3,4-Dimethoxyphenyl)-2-{4-(4-methyl-6-oxo-1,4,5,6-tetrahydropyridazin-3-yl)phenyl}-4a,5,8,8a-tetrahydro-2H-phthalazin-1-one] | 8.36 | 204 |
